Measured values: publication PMC10239507, “Development of allosteric and selective CDK2 inhibitors for contraception with negative cooperativity to cyclin binding” (Nature Communications, 2023)

Tests used:
Assay in all cases: biochemical
[1] = target: T1, 371 kinases (kinase named in each endpoint) (Homo sapiens, UniProt Q96PY6); conditions: NEK1
T1 construct: purchased Reaction Biology

[2] = target: T2, 371 kinases (kinase named in each endpoint) (Homo sapiens, UniProt Q13554); conditions: CAMK2B
T2 construct: purchased Reaction Biology

[3] = target: T3, 371 kinases (kinase named in each endpoint) (Homo sapiens, UniProt P43250); conditions: GRK6
T3 construct: purchased Reaction Biology

[4] = target: T4, 371 kinases (kinase named in each endpoint) (Homo sapiens, UniProt Q9Y6M4); conditions: CK1G3
T4 construct: purchased Reaction Biology

[5] = target: T5, 371 kinases (kinase named in each endpoint) (Homo sapiens, UniProt O14920); conditions: IKKb/IKBKB
T5 construct: purchased Reaction Biology
T5 sequence (O14920 whole entry): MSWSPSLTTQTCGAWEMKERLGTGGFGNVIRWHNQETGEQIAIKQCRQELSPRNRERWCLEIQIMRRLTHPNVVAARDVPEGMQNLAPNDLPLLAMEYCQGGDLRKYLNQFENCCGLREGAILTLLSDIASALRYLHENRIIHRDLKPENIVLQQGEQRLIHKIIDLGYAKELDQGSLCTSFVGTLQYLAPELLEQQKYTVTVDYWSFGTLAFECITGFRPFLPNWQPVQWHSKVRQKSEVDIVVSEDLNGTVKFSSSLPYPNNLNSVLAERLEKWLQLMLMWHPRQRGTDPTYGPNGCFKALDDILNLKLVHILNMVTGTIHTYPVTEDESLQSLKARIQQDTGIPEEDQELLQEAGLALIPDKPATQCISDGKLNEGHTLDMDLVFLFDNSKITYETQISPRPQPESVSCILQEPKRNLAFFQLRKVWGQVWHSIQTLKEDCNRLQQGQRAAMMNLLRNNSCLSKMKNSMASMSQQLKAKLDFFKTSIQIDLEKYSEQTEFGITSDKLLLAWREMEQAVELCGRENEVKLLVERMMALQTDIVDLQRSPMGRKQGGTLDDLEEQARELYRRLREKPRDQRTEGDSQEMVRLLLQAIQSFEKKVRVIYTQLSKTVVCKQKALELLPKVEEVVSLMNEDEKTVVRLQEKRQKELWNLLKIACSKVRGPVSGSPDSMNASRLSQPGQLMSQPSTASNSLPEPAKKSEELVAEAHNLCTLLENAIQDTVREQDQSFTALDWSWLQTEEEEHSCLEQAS

[6] = target: T6, 371 kinases (kinase named in each endpoint) (Homo sapiens, UniProt P04629); conditions: TRKA
T6 construct: purchased Reaction Biology

[7] = target: T7, 371 kinases (kinase named in each endpoint) (Homo sapiens, UniProt P49674); conditions: CK1EPSILON
T7 construct: purchased Reaction Biology

[8] = target: T8, 371 kinases (kinase named in each endpoint) (Homo sapiens, UniProt Q8TD08); conditions: ERK7/MAPK15
T8 construct: purchased Reaction Biology

[9] = target: T9, 371 kinases (kinase named in each endpoint) (Homo sapiens, UniProt P04626); conditions: ERBB2/HER2
T9 construct: purchased Reaction Biology

[10] = target: T10, 371 kinases (kinase named in each endpoint) (Homo sapiens, UniProt Q9BUB5); conditions: MNK1
T10 construct: purchased Reaction Biology

[11] = target: T11, 371 kinases (kinase named in each endpoint) (Homo sapiens, UniProt P06241); conditions: FYN
T11 construct: purchased Reaction Biology

[12] = target: T12, 371 kinases (kinase named in each endpoint) (Homo sapiens, UniProt P10721); conditions: C-KIT
T12 construct: purchased Reaction Biology

[13] = target: T13, 371 kinases (kinase named in each endpoint) (Homo sapiens, UniProt Q8IW41); conditions: MAPKAPK5/PRAK
T13 construct: purchased Reaction Biology

[14] = target: T14, 371 kinases (kinase named in each endpoint) (Homo sapiens, UniProt O75914); conditions: PAK3
T14 construct: purchased Reaction Biology

[15] = target: T15, 371 kinases (kinase named in each endpoint) (Homo sapiens, UniProt Q9UF33); conditions: EPHA6
T15 construct: purchased Reaction Biology

[16] = target: T16, 371 kinases (kinase named in each endpoint) (Homo sapiens, UniProt O95835); conditions: LATS1
T16 construct: purchased Reaction Biology

[17] = target: T17, 371 kinases (kinase named in each endpoint) (Homo sapiens, UniProt Q02763); conditions: TIE2/TEK
T17 construct: purchased Reaction Biology

[18] = target: T18, 371 kinases (kinase named in each endpoint) (Homo sapiens, UniProt Q9UK32); conditions: RSK4
T18 construct: purchased Reaction Biology

[19] = target: T19, 371 kinases (kinase named in each endpoint) (Homo sapiens, UniProt P35916); conditions: FLT4/VEGFR3
T19 construct: purchased Reaction Biology

[20] = target: T20, 371 kinases (kinase named in each endpoint) (Homo sapiens, UniProt Q13233); conditions: MEKK1
T20 construct: purchased Reaction Biology
T20 sequence (Q13233 whole entry): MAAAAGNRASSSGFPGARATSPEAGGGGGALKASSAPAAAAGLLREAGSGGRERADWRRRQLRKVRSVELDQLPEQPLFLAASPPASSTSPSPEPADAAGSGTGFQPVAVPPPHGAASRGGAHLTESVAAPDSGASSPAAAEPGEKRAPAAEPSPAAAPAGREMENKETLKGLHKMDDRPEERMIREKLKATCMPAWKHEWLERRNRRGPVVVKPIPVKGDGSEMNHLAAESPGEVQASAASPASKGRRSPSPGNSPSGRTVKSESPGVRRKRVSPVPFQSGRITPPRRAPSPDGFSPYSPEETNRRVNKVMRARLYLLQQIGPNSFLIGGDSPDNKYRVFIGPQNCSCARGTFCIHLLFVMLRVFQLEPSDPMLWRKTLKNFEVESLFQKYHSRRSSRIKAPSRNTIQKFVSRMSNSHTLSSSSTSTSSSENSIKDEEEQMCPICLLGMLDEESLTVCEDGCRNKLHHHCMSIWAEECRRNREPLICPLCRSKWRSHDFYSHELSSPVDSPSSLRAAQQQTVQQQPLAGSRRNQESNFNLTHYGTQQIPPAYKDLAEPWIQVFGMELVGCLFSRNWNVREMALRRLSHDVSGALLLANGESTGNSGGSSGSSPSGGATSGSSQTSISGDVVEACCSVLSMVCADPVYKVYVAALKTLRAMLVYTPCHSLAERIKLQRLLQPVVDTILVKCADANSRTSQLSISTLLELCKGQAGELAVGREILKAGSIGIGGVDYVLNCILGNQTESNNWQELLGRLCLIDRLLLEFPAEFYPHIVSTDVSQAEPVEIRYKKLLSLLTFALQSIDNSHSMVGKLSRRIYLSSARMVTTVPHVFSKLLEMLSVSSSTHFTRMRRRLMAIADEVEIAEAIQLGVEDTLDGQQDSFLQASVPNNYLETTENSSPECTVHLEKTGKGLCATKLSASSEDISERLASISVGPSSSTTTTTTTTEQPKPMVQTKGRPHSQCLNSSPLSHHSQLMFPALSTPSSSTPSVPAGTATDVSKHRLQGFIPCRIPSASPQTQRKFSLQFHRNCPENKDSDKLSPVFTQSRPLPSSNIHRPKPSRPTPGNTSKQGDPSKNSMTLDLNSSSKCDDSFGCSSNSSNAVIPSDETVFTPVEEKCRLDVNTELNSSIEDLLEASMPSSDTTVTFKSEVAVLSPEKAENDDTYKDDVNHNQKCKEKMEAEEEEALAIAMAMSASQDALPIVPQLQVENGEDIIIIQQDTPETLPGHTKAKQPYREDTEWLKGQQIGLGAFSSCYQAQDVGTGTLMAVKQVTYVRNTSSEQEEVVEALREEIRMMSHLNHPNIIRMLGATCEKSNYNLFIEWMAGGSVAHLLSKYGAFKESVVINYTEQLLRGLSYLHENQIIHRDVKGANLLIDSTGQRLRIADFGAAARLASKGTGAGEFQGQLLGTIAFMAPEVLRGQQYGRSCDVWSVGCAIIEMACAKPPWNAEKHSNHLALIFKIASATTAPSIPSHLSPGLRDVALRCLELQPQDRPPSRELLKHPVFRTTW

[21] = target: T21, 371 kinases (kinase named in each endpoint) (Homo sapiens, UniProt Q32MK0); conditions: MYLK3
T21 construct: purchased Reaction Biology

[22] = target: T22, 371 kinases (kinase named in each endpoint) (Homo sapiens, UniProt Q9Y2H1); conditions: STK38L/NDR2
T22 construct: purchased Reaction Biology
T22 sequence (Q9Y2H1 whole entry): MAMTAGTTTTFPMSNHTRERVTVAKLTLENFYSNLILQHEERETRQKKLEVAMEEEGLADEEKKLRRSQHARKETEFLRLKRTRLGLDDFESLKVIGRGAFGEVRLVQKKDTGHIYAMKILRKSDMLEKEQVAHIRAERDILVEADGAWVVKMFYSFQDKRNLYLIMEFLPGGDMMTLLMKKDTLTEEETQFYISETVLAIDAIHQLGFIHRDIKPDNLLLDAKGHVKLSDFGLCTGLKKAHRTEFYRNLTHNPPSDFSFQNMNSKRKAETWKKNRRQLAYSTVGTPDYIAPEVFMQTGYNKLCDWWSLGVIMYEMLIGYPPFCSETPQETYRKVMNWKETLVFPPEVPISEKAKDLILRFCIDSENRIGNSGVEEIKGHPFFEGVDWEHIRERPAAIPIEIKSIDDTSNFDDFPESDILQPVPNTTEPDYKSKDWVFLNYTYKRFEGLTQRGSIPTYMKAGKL

[23] = target: T23, 371 kinases (kinase named in each endpoint) (Homo sapiens, UniProt Q8NEV4); conditions: MYO3A
T23 construct: purchased Reaction Biology

[24] = target: T24, 371 kinases (kinase named in each endpoint) (Homo sapiens, UniProt P20794); conditions: MAK
T24 construct: purchased Reaction Biology

[25] = target: T25, 371 kinases (kinase named in each endpoint) (Homo sapiens, UniProt O14578); conditions: STK21/CIT
T25 construct: purchased Reaction Biology

[26] = target: T26, 371 kinases (kinase named in each endpoint) (Homo sapiens, UniProt Q86YV6); conditions: MYLK4
T26 construct: purchased Reaction Biology
T26 sequence (Q86YV6 whole entry): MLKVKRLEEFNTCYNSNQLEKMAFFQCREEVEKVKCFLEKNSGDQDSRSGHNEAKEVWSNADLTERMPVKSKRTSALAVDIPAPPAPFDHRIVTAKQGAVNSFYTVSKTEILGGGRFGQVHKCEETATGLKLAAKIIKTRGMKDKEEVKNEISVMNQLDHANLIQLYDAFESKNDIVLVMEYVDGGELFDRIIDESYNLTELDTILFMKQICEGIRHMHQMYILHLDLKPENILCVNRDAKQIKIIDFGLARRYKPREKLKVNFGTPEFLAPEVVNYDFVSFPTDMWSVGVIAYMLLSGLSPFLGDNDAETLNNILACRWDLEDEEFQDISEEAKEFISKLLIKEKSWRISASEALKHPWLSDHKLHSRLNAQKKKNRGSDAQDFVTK

[27] = target: T27, 371 kinases (kinase named in each endpoint) (Homo sapiens, UniProt P45984); conditions: JNK2
T27 construct: purchased Reaction Biology
T27 sequence (P45984 whole entry): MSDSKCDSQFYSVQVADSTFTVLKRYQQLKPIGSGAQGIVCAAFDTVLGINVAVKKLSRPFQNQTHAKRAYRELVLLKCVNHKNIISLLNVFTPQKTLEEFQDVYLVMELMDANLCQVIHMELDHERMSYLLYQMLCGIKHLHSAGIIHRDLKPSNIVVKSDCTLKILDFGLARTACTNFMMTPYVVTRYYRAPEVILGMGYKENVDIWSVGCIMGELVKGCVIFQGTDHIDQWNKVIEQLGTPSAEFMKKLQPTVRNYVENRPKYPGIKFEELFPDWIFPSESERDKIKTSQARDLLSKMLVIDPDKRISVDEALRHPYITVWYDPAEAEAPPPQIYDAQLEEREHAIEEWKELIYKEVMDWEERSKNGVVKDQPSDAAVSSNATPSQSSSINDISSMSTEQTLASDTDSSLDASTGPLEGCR

[28] = target: T28, 371 kinases (kinase named in each endpoint) (Homo sapiens, UniProt O15111); conditions: IKKA/CHUK
T28 construct: purchased Reaction Biology

[29] = target: T29, 371 kinases (kinase named in each endpoint) (Homo sapiens, UniProt P37173); conditions: TGFBR2
T29 construct: purchased Reaction Biology

[30] = target: T30, 371 kinases (kinase named in each endpoint) (Homo sapiens, UniProt P42680); conditions: TEC
T30 construct: purchased Reaction Biology

[31] = target: T31, 371 kinases (kinase named in each endpoint) (Homo sapiens, UniProt P34947); conditions: GRK5
T31 construct: purchased Reaction Biology

[32] = target: T32, 371 kinases (kinase named in each endpoint) (Homo sapiens, UniProt Q96GX5); conditions: MASTL
T32 construct: purchased Reaction Biology

[33] = target: T33, 371 kinases (kinase named in each endpoint) (Homo sapiens, UniProt Q9BZL6); conditions: PKD2/PRKD2
T33 construct: purchased Reaction Biology

[34] = target: T34, 371 kinases (kinase named in each endpoint) (Homo sapiens, UniProt P07333); conditions: FMS
T34 construct: purchased Reaction Biology
T34 sequence (P07333 20-972): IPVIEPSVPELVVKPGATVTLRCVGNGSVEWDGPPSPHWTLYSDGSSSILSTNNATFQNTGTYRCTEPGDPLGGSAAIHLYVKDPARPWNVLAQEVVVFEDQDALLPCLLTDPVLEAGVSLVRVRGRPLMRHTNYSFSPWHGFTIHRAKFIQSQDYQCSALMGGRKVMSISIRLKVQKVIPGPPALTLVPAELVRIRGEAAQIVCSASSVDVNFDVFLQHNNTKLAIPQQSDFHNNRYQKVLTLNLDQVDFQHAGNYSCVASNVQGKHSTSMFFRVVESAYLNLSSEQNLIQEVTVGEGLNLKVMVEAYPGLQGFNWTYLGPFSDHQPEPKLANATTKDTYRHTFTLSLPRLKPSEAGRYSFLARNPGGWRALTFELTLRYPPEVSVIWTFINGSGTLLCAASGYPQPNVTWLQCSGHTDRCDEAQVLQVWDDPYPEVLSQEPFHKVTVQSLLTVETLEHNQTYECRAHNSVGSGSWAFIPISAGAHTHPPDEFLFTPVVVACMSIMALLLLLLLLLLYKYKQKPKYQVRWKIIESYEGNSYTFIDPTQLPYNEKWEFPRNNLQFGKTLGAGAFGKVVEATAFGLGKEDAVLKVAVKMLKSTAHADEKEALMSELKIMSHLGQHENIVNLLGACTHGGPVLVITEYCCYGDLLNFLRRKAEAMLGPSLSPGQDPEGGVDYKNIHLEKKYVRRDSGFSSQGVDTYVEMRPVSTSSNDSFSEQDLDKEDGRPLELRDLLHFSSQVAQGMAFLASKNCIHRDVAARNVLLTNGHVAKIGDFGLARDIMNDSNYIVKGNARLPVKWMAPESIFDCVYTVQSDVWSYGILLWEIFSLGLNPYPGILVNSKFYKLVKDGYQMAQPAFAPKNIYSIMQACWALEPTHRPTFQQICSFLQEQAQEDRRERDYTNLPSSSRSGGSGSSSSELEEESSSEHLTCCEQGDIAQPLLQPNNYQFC

[35] = target: T35, 371 kinases (kinase named in each endpoint) (Homo sapiens, UniProt P49760); conditions: CLK2
T35 construct: purchased Reaction Biology
T35 sequence (P49760 whole entry): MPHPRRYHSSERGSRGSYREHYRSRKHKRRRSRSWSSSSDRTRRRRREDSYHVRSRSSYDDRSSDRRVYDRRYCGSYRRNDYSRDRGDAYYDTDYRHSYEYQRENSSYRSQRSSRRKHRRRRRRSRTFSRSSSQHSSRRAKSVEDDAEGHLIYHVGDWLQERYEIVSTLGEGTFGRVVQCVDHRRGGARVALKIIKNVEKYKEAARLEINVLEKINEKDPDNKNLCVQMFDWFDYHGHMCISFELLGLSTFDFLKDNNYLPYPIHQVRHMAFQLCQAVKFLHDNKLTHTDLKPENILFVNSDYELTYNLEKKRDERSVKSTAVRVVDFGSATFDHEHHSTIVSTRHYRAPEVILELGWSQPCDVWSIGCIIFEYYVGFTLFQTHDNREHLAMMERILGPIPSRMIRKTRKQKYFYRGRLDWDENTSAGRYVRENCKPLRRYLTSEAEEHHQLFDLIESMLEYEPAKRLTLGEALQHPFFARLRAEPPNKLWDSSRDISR

[36] = target: T36, 371 kinases (kinase named in each endpoint) (Homo sapiens, UniProt Q9Y243); conditions: AKT3
T36 construct: purchased Reaction Biology

[37] = target: T37, 371 kinases (kinase named in each endpoint) (Homo sapiens, UniProt P35626); conditions: GRK3
T37 construct: purchased Reaction Biology

O=C(O)c1cc(C(F)(F)F)ccc1NCCc1c[nH]c2cc(Br)ccc12 [Compound 5, 2-((2-(6-Bromo-1H-indol-3-yl)ethyl)amino)−5-(trifluoromethyl)benzoic Acid]
activity at 10 µM [1]: 91.8 ± 2.3% | activity at 10 µM [2]: 62.2 ± 0.8% | activity at 10 µM [3]: 112 ± 2.8% | activity at 10 µM [4]: 96.3 ± 0.6% | activity at 10 µM [5]: 82.1 ± 0.2% | activity at 10 µM [6]: 65.1 ± 1.6% | activity at 10 µM [7]: 60.1 ± 1.8% | activity at 10 µM [8]: 136 ± 6.1% | activity at 10 µM [9]: 78 ± 0.2% | activity at 10 µM [10]: 79 ± 0.9% | activity at 10 µM [11]: 86.4 ± 1.8% | activity at 10 µM [12]: 84.5 ± 2.5% | activity at 10 µM [13]: 95.4 ± 2% | activity at 10 µM [14]: 84 ± 0.9% | activity at 10 µM [15]: 91.9 ± 1.1% | activity at 10 µM [16]: 93 ± 3.5% | activity at 10 µM [17]: 93.7 ± 0.9% | activity at 10 µM [18]: 91 ± 0.4% | activity at 10 µM [19]: 102 ± 3.7% | activity at 10 µM [20]: 110 ± 0.1% | activity at 10 µM [21]: 90.9 ± 3.2% | activity at 10 µM [22]: 94 ± 0.9% | activity at 10 µM [23]: 118 ± 3.4% | activity at 10 µM [24]: 81.6 ± 0.5% | activity at 10 µM [25]: 102.1 ± 0.3% | activity at 10 µM [26]: 78.7 ± 0.2% | activity at 10 µM [27]: 89.6 ± 0.4% | activity at 10 µM [28]: 83.2 ± 1.4% | activity at 10 µM [29]: 79.2 ± 1.5% | activity at 10 µM [30]: 101 ± 1.6% | activity at 10 µM [31]: 101 ± 1.1% | activity at 10 µM [32]: 101.7 ± 0.2% | activity at 10 µM [33]: 84.1 ± 0.4% | activity at 10 µM [34]: 98 ± 1.7% | activity at 10 µM [35]: 104.3 ± 0.7% | activity at 10 µM [36]: 90.2 ± 0.5% | activity at 10 µM [37]: 93.7 ± 1.2%
